Measured values published in paper PMC4882222 (Journal of medicinal chemistry, 2016).
Like-named read-outs stand apart in the source and are kept apart here.

What was measured:
[1] = biological target: HIV RT-associated RNase H (Human immunodeficiency virus type 1 group M subtype B, UniProt P04585); type: biochemical, HIV-1
HIV RT polymerase = HIV RT polymerase (Human immunodeficiency virus type 1 group M subtype B, UniProt P04585); assay: RT polymerase assay; type: biochemical, HIV-1
HIV integrase = HIV integrase (Human immunodeficiency virus type 1 group M subtype B, UniProt P04585); assay: HIV IN strand transfer assay; type: biochemical
[2] = RNH IC50 HTS-2, HTS-2 substrate, measures DNA 3' end directed cleavage
[3] = RNH IC50 HTS-3, HTS-3 substrate, measures RNA 5' end directed cleavage
[4] = RT RNase H IC50, Table 4, data with HTS-1 as substrate

Compound | IC50 [1, 2] | IC50 [1, 3] | IC50 [1, 4] | IC50 (HIV RT polymerase) | RT Pol IC50 (HIV RT polymerase; Table 1, poly(rA)-oligo(dT)16, [3H]-TTP) | IC50 (HIV RT polymerase; read-out: RT Pol IC50, Table 4) | IC50 (HIV integrase)
O=C(O)c1c[nH]cc(O)c1=O [10a, 5-Hydroxy-4-oxo-1,4-dihydropyridine-3-carboxylic acid] | > 25 µM | > 25 µM | > 25 µM | > 25 µM | no inhibitory activity | > 25 µM | > 100 µM
O=C(O)c1cn(-c2ccccc2)cc(O)c1=O [10b, 5-Hydroxy-4-oxo-1-phenyl-1,4-dihydropyridine-3-carboxylic acid] | > 25 µM | > 25 µM | > 25 µM | > 25 µM | – | > 25 µM | –
O=C(O)c1cn(Cc2ccccc2)cc(O)c1=O [10c, 1-Benzyl-5-hydroxy-4-oxo-1,4-dihydropyridine-3-carboxylic acid] | > 25 µM | > 25 µM | > 25 µM | > 25 µM | – | > 25 µM | –
O=C(O)c1cn(Cc2ccc(F)cc2)cc(O)c1=O [10d, 1-(4-Fluorobenzyl)-5-hydroxy-4-oxo-1,4-dihydropyridine-3-carboxylic acid] | > 25 µM | > 25 µM | – | > 25 µM | – | > 25 µM | –
CC(c1ccc(F)cc1)n1cc(O)c(=O)c(C(=O)O)c1 (centres unmarked) [10e, 1-(1-(4-Fluorophenyl)ethyl)-5-hydroxy-4-oxo-1,4-dihydropyridine-3-carboxylic acid] | > 25 µM | > 25 µM | – | > 25 µM | – | > 25 µM | –
Cc1cc(Cn2cc(O)c(=O)c(C(=O)O)c2)ccc1F [10f, 1-(4-Fluoro-3-methylbenzyl)-5-hydroxy-4-oxo-1,4-dihydropyridine-3-carboxylic acid] | > 25 µM | > 25 µM | – | > 25 µM | – | > 25 µM | > 100 µM
O=C(O)c1cn(Cc2ccc(F)cc2F)cc(O)c1=O [10g, 1-(2,4-Difluorobenzyl)-5-hydroxy-4-oxo-1,4-dihydropyridine-3-carboxylic acid] | > 25 µM | > 25 µM | – | > 25 µM | – | > 25 µM | > 100 µM
O=C(O)c1cn(Cc2ccc(Cl)c(Cl)c2)cc(O)c1=O [10i, 1-(3,4-Dichlorobenzyl)-5-hydroxy-4-oxo-1,4-dihydropyridine-3-carboxylic acid] | > 25 µM | > 25 µM | – | > 25 µM | – | > 25 µM | –
O=C(O)c1cn(Cc2ccc(Cl)cc2Cl)cc(O)c1=O [10j, 1-(2,4-Dichlorobenzyl)-5-hydroxy-4-oxo-1,4-dihydropyridine-3-carboxylic acid] | > 25 µM | > 25 µM | – | > 25 µM | – | > 25 µM | –
O=C(O)c1cn(Cc2ccc(F)c(Cl)c2)cc(O)c1=O [10k, 1-(3-Chloro-4-fluorobenzyl)-5-hydroxy-4-oxo-1,4-dihydropyridine-3-carboxylic acid] | > 25 µM | > 25 µM | – | > 25 µM | – | > 25 µM | –
O=C(O)c1cn(Cc2ccc(Br)cc2)cc(O)c1=O [10l, 1-(4-Bromobenzyl)-5-hydroxy-4-oxo-1,4-dihydropyridine-3-carboxylic acid] | > 25 µM | > 25 µM | > 25 µM | > 25 µM | – | > 25 µM | > 100 µM
O=C(O)c1cn(Cc2ccncc2)cc(O)c1=O [10n, 5-Hydroxy-4-oxo-1-(pyridin-4-ylmethyl)-1,4-dihydropyridine-3-carboxylic acid] | > 25 µM | > 25 µM | > 25 µM | > 25 µM | – | > 25 µM | > 100 µM
CS(=O)(=O)c1ccc(Cn2cc(O)c(=O)c(C(=O)O)c2)cc1 [10o, 5-Hydroxy-1-(4-(methylsulfonyl)benzyl)-4-oxo-1,4-dihydropyridine-3-carboxylic acid] | > 25 µM | > 25 µM | > 25 µM | > 25 µM | – | > 25 µM | –
O=C(O)c1ccc(Cn2cc(O)c(=O)c(C(=O)O)c2)cc1 [10p, 1-(4-Carboxybenzyl)-5-hydroxy-4-oxo-1,4-dihydropyridine-3-carboxylic acid] | > 25 µM | > 25 µM | > 25 µM | > 25 µM | – | > 25 µM | –
NS(=O)(=O)c1ccc(-c2ccc(Cn3cc(O)c(=O)c(C(=O)O)c3)cc2)cc1 [10y, 5-Hydroxy-4-oxo-1-((4'-sulfamoyl-[1,1'-biphenyl]-4-yl)methyl)-1,4-dihydropyridine-3-carboxylic acid] | – | – | – | – | – | – | > 100 µM
CCOC(=O)c1cn(Cc2ccc(F)cc2)cc(O)c1=O [compound 18, Ethyl-1-(4-fluorobenzyl)-5-hydroxy-4-oxo-1,4-dihydropyridine-3-carboxylate] | > 25 µM | > 25 µM | > 25 µM | > 25 µM | – | > 25 µM | > 100 µM
NC(=O)c1cn(Cc2ccc(F)cc2)cc(O)c1=O [compound 20, 1-(4-Fluorobenzyl)-5-hydroxy-4-oxo-1,4-dihydropyridine-3-carboxamide] | > 25 µM | > 25 µM | – | > 25 µM | – | > 25 µM | –
